How the values were obtained:
Assay in all cases: Test C pre-/postemergence herbicide test
bermudagrass = format: in vivo, Cynodon dactylon
Method in brief: (§1)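 Preemergence: seeds planted and treated with compound in non-phytotoxic solvent with surfactant; postemergence: plants at 2 to 18 cm (1- to 4-leaf stage) sprayed likewise. Kept in greenhouse 12 to 14 days, then visually rated against controls, 0 (no effect) to 100 (complete control).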

[1] = test system: common (oilseed) sunflower; format: in vivo, Helianthus annuus
Method in brief: as §1

velvetleaf = format: in vivo, Abutilon theophrasti
Method in brief: as §1

woolly cupgrass = format: in vivo, Eriochloa villosa
Method in brief: as §1

giant foxtail = format: in vivo, Setaria faberi
Method in brief: as §1

yellow nutsedge = format: in vivo, Cyperus esculentus
Method in brief: as §1

[2] = Preemergence, 500 g ai/ha, scale 0 to 100, 0 no effect, 100 complete control
[3] = 250 g ai/ha, scale 0-100, preemergence
[4] = 500 g ai/ha, scale 0 to 100 (0 no effect, 100 complete control), visual, 12 to 14 days, preemergence
[5] = 62 g ai/ha, preemergence, scale 0 to 100

CCn1nc(C(C)(C)C)cc1C(=O)Nc1cc(C(=O)N(C)C)ccn1 [Compound 156, 2-[[[3-(1,1-dimethylethyl)-1-ethyl-1H-pyrazol-5-yl]carbonyl]amino]-N,N-dimethyl-4-pyridinecarboxamide]
pest or weed control at 16 g/ha (bermudagrass; Cynodon dactylon, pre-emergence, 312 h, 16 g ai/ha, scale 0 to 100, 0 no effect, 100 complete control, last section of Table C (species set of preemergence test), read-out: Plant response rating, Bermudagrass): 0%
pest or weed control at 31 g/ha (bermudagrass; Cynodon dactylon, pre-emergence, 312 h, 31 g ai/ha, scale 0 to 100, 0 no effect, 100 complete control, last section of Table C (species set of preemergence test), read-out: Plant response rating, Bermudagrass): 60%
pest or weed control at 62 g/ha (bermudagrass; Cynodon dactylon, pre-emergence, 312 h, 62 g ai/ha, preemergence, scale 0 to 100, 0 no effect, 100 complete control, read-out: Plant response rating, Bermudagrass): 88%
pest or weed control at 125 g/ha (bermudagrass; Cynodon dactylon, pre-emergence, 312 h, 125 g ai/ha, scale 0 (no effect) to 100 (complete control), visual, 12 to 14 days, read-out: Plant response rating, Bermudagrass): 93%
pest or weed control at 250 g/ha (bermudagrass; Cynodon dactylon, pre-emergence, 312 h, 250 g ai/ha, scale 0 to 100 (0 no effect, 100 complete control), visual, 12 to 14 days, read-out: Plant response rating, Bermudagrass): 95%
pest or weed control at 500 g/ha (bermudagrass; Cynodon dactylon, pre-emergence, 312 h, Preemergence, 500 g ai/ha, scale 0 to 100, 0 no effect, 100 complete control, read-out: Bermudagrass plant response rating): 95%
pest or weed control at 62 g/ha ([1]; Helianthus annuus, pre-emergence, 62 g ai/ha, preemergence, scale 0 to 100, read-out: Plant response rating, Sunflower): 25%
pest or weed control at 125 g/ha ([1]; Helianthus annuus, pre-emergence, 125 g ai/ha, scale 0 (no effect) to 100 (complete control), visual, 12 to 14 days, read-out: Plant response rating, Sunflower): 45%
Sunflower plant response rating [1, 2]: 85
pest or weed control at 62 g/ha (velvetleaf; Abutilon theophrasti, pre-emergence, 62 g ai/ha, preemergence, scale 0 to 100, read-out: Plant response rating, Velvetleaf): 43%
pest or weed control at 125 g/ha (velvetleaf; Abutilon theophrasti, pre-emergence, 125 g ai/ha, scale 0 (no effect) to 100 (complete control), visual, 12 to 14 days, read-out: Plant response rating, Velvetleaf): 63%
Velvetleaf plant response rating (velvetleaf; [2]): 100
pest or weed control at 62 g/ha (woolly cupgrass; Eriochloa villosa, pre-emergence, 312 h, 62 g ai/ha, preemergence, scale 0 to 100, read-out: Plant response rating, Cupgrass, Woolly): 33%
pest or weed control at 125 g/ha (woolly cupgrass; Eriochloa villosa, pre-emergence, 312 h, 125 g ai/ha, scale 0 (no effect) to 100 (complete control), visual, 12 to 14 days, read-out: Plant response rating, Cupgrass, Woolly): 70%
pest or weed control at 250 g/ha (woolly cupgrass; Eriochloa villosa, pre-emergence, 312 h, 250 g ai/ha, scale 0 to 100 (0 no effect, 100 complete control), visual, 12 to 14 days, read-out: Plant response rating, Cupgrass, Woolly): 80%
Cupgrass, Woolly plant response rating (woolly cupgrass; [2]): 90
Foxtail, Giant plant response rating (giant foxtail; [2]): 95
pest or weed control at 62 g/ha (giant foxtail; Setaria faberi, pre-emergence, 312 h, 62 g ai/ha, preemergence, scale 0 to 100, read-out: Plant response rating, Foxtail, Giant): 75%
pest or weed control at 125 g/ha (giant foxtail; Setaria faberi, pre-emergence, 312 h, 125 g ai/ha, scale 0 (no effect) to 100 (complete control), visual, 12 to 14 days, read-out: Plant response rating, Foxtail, Giant): 83%
pest or weed control at 250 g/ha (giant foxtail; Setaria faberi, pre-emergence, 312 h, 250 g ai/ha, scale 0 to 100 (0 no effect, 100 complete control), visual, 12 to 14 days, read-out: Plant response rating, Foxtail, Giant): 85%
pest or weed control at 62 g/ha (yellow nutsedge; Cyperus, pre-emergence, 62 g ai/ha, preemergence, scale 0 to 100, read-out: Plant response rating, Nutsedge, Yellow): 35%
pest or weed control at 125 g/ha (yellow nutsedge; Cyperus, pre-emergence, 125 g ai/ha, scale 0 (no effect) to 100 (complete control), visual, 12 to 14 days, read-out: Plant response rating, Nutsedge, Yellow): 60%
Nutsedge, Yellow plant response rating (yellow nutsedge; [2]): 85

Cc1nn(C(C)(C)C)nc1C(=O)Nc1cccc(C(=S)N(C)C)c1 [Compound 419]
Plant response rating, Bermudagrass (bermudagrass; 62 g ai/ha, preemergence, scale 0 to 100, 0 no effect, 100 complete control): 100
Plant response rating (0 = no effect, 100 = complete control), Bermudagrass (bermudagrass; 125 g ai/ha, preemergence): 100
Plant response rating, Bermudagrass (bermudagrass; [3]): 100
Plant response rating, Bermudagrass (bermudagrass; [4]): 100
Plant response rating, Sunflower [1, 5]: 0
Plant response rating (0 = no effect, 100 = complete control), Sunflower ([1]; 125 g ai/ha, preemergence): 0
Plant response rating, Sunflower [1, 4]: 95
Plant response rating, Velvetleaf (velvetleaf; [5]): 100
Plant response rating (0 = no effect, 100 = complete control), Velvetleaf (velvetleaf; 125 g ai/ha, preemergence): 100
Plant response rating, Velvetleaf (velvetleaf; [4]): 100
Plant response rating, Cupgrass, Woolly (woolly cupgrass; [5]): 0
Plant response rating (0 = no effect, 100 = complete control), Cupgrass, Woolly (woolly cupgrass; 125 g ai/ha, preemergence): 15
Plant response rating, Cupgrass, Woolly (woolly cupgrass; [3]): 45
Plant response rating, Cupgrass, Woolly (woolly cupgrass; [4]): 65
Plant response rating, Foxtail, Giant (giant foxtail; [5]): 75
Plant response rating (0 = no effect, 100 = complete control), Foxtail, Giant (giant foxtail; 125 g ai/ha, preemergence): 85
Plant response rating, Foxtail, Giant (giant foxtail; [3]): 95
Plant response rating, Foxtail, Giant (giant foxtail; [4]): 100
Plant response rating, Nutsedge, Yellow (yellow nutsedge; [5]): 0
Plant response rating (0 = no effect, 100 = complete control), Nutsedge, Yellow (yellow nutsedge; 125 g ai/ha, preemergence): 0
Plant response rating, Nutsedge, Yellow (yellow nutsedge; [4]): 0

Reference: patent US20060069132A1, “Azolecarboxamide herbicides” (priority 2004, published 2006)
